# Like-named read-outs stand apart in the source and are kept apart here.
# Columns and labels:
# E. coli 107115 = experiment: microbe, parasite or virus in culture; type: cell-based, Escherichia coli; conditions: one value per checkerboard plate
# Procedure: (§1) The adjuvant properties of the guanidinylated polymyxins were evaluated using the checkerboard assay as previously described. The bacterial solution was prepared as described in the antimicrobial susceptibility assay. The antibiotic of interest and the adjuvant were serially diluted two-fold along the x- and y-axis on a 96-well plate, respectively, resulting in varying concentrations of both agents in each well. Equal volumes of bacterial solution were added to the designated wells. The well consisting of bacterial solution served as the positive control, while the wells containing only media served as the negative control. The plate was then incubated at 37 °C for 18 h. After incubation, an Emax Plus microplate reader (Molecular Devices, Union City, CA, USA) was used to measure the OD at a wavelength of 590 nm to confirm the turbidity. The fractional inhibitory concentration (FIC) index was then determined to establish the relationship between the antibiotic and adjuvant. The FIC index corresponds to the sum of the FICs of the antibiotic and adjuvant. The FIC of each agent is calculated by dividing its MIC when it is used in combination by its MIC when used alone. FIC indices ≤0.5, 0.5 < x ≤ 4 and >4 indicate synergy, additivity and antagonism, respectively.
# E. coli 94393 = experiment: Checkerboard assay; type: cell-based, Escherichia coli; conditions: one value per checkerboard plate
# Procedure: as §1
# E. coli 94474 = experiment: Checkerboard assay; type: cell-based, Escherichia coli; conditions: one value per checkerboard plate
# Procedure: as §1
# P. aeruginosa 101243 = experiment: Checkerboard assay; type: cell-based, Pseudomonas aeruginosa; conditions: one value per checkerboard plate
# Procedure: as §1
# [1] = system: P. aeruginosa P262-101856; experiment: Checkerboard assay; type: cell-based, Pseudomonas aeruginosa; conditions: Pseudomonas aeruginosa, P262101856, agent alone, one value per checkerboard plate
# Procedure: as §1
# P. aeruginosa P259-96918 = experiment: Checkerboard assay; type: cell-based, Pseudomonas aeruginosa; conditions: Pseudomonas aeruginosa, P25996918; agent alone, one value per checkerboard plate
# Procedure: as §1
# [2] = system: P. aeruginosa P264-104354; experiment: Checkerboard assay; type: cell-based, Pseudomonas aeruginosa; conditions: Pseudomonas aeruginosa, P264104354, agent alone, one value per checkerboard plate
# Procedure: as §1
# P. aeruginosa PAO1 = experiment: microbe, parasite or virus in culture; type: cell-based, Pseudomonas aeruginosa; conditions: for MIC: Pseudomonas aeruginosa, PAO1, 18 h, read-out: MIC alone
# Procedure: as §1
# P. aeruginosa 114228 = experiment: microbe, parasite or virus in culture; type: cell-based, Pseudomonas aeruginosa; conditions: Pseudomonas aeruginosa, 114228, agent alone, one value per checkerboard plate
# Procedure: as §1
# E. cloacae 118564 = experiment: Checkerboard assay; type: cell-based, Enterobacter cloacae; conditions: Enterobacter cloacae, 118564; agent alone, one value per checkerboard plate
# Procedure: as §1
# E. coli ATCC 25922 = experiment: microbe, parasite or virus in culture; type: cell-based, Escherichia coli; design: key to FIC index antibiotic + GCol / FIC index antibiotic + GPMB: sum of FICs; ≤0.5 synergy, 0.5–4 additivity, >4 antagonism; conditions: for MIC: Escherichia coli, ATCC25922, 18 h, read-out: MIC alone
# Procedure: as §1
# K. pneumoniae 113254 = experiment: Checkerboard assay; type: cell-based, Klebsiella pneumoniae; conditions: one value per checkerboard plate
# Procedure: as §1
# K. pneumoniae 113250 = experiment: Checkerboard assay; type: cell-based, Klebsiella pneumoniae; conditions: one value per checkerboard plate
# Procedure: as §1
# A. baumannii 110193 = experiment: microbe, parasite or virus in culture; type: cell-based, Acinetobacter baumannii; conditions: one value per checkerboard plate
# Procedure: as §1
# A. baumannii AB027 = experiment: microbe, parasite or virus in culture; type: cell-based, Acinetobacter baumannii; conditions: one value per checkerboard plate
# Procedure: as §1
# A. baumannii 92247 = experiment: microbe, parasite or virus in culture; type: cell-based, Acinetobacter baumannii; conditions: one value per checkerboard plate
# Procedure: as §1
# A. baumannii ATCC 17978 = experiment: microbe, parasite or virus in culture; type: cell-based, Acinetobacter baumannii; conditions: for MIC: Acinetobacter baumannii, ATCC17978, 18 h, read-out: MIC alone
# Procedure: as §1
# E. cloacae 121187 = experiment: microbe, parasite or virus in culture; type: cell-based, Enterobacter cloacae; conditions: one value per checkerboard plate
# Procedure: as §1
# A. baumannii AB031 = experiment: Checkerboard assay; type: cell-based, Acinetobacter baumannii; conditions: one value per checkerboard plate
# Procedure: as §1
# P. aeruginosa PA 107092 = experiment: Time-kill assay; type: cell-based, Pseudomonas aeruginosa; conditions: ceftazidime 8 μg/mL + GCol 2 μM or avibactam 8 μM
# Procedure: To study the time-dependent killing effects of the drug combinations, the time-kill kinetics were assessed. The time-kill assay was performed following the 8 μM (2 μg/mL) concentration of avibactam used in the checkerboard assay. […] This concentration also corresponds to the susceptibility breakpoint of both β-lactams.
# For the preparation of the bacterial solution, an overnight grown culture was diluted in 0.85% saline solution and adjusted to 0.5 McFarland turbidity. […] The culture tubes were incubated at 37 °C, shaking at 250 rpm. At the appointed time intervals, a 100-μL aliquot was taken from each tube, serially diluted in phosphate-buffered saline (PBS) and plated on LB agar plates. The plates were incubated at 37 °C, and bacterial colonies were counted after 18 h. The bactericidal or bacteriostatic activity is determined based on the decrease in CFU over the time period. Bactericidal activity corresponds to ≥3 log10 reduction in CFU/mL, while bacteriostatic activity corresponds to <3 log10 reduction in CFU/mL.
# [3] = agent alone, one value per checkerboard plate
structure (smiles),measurement,setting,value
CO[C@H]1/C=C/O[C@@]2(C)Oc3c(C)c(O)c4c(O)c(c(/C=N/N5CCN(C)CC5)c(O)c4c3C2=O)NC(=O)/C(C)=C\C=C\[C@H](C)[C@H](O)[C@@H](C)[C@@H](O)[C@@H](C)[C@H](OC(C)=O)[C@@H]1C [Rifampicin],MIC,"E. coli 107115; Escherichia coli, 107115, agent alone",32 µg/mL
same,MIC alone,E. coli 107115; agent alone,16 µg/mL
same,MIC,"E. coli 94393; Escherichia coli, 94393, agent alone",8 µg/mL
same,MIC alone,E. coli 94393; agent alone,4 µg/mL
same,MIC,"E. coli 94474; Escherichia coli, 94474, agent alone",8 µg/mL
same,MIC alone,E. coli 94474; agent alone,4 µg/mL
same,MIC,"P. aeruginosa 101243; Pseudomonas aeruginosa, 101243, agent alone",2 µg/mL
same,MIC alone,P. aeruginosa 101243; agent alone,4 µg/mL
same,MIC,[1],512 µg/mL
same,MIC,P. aeruginosa P259-96918,16 µg/mL
same,MIC,[2],16 µg/mL
same,Absolute MIC of antibiotic at 4 μg/mL GCol,P. aeruginosa PAO1,0.0625 µg/mL
same,Absolute MIC of antibiotic at 4 μg/mL GPMB,P. aeruginosa PAO1,0.03125 µg/mL
same,MIC,P. aeruginosa PAO1; [3],16 µg/mL
same,Fold-potentiation of antibiotic,P. aeruginosa PAO1; at 4 μg/mL GCol,256
same,Fold-potentiation of antibiotic,P. aeruginosa PAO1; at 4 μg/mL GPMB,512
same,MIC,P. aeruginosa 114228,16 µg/mL
same,MIC,E. cloacae 118564,8 µg/mL
same,Absolute MIC of antibiotic at 2 μg/mL GCol,E. coli ATCC 25922,0.008 µg/mL
same,Absolute MIC of antibiotic at 2 μg/mL GPMB,E. coli ATCC 25922,0.008 µg/mL
same,FIC index antibiotic + GCol,E. coli ATCC 25922,0.023
same,FIC index antibiotic + GPMB,E. coli ATCC 25922,0.07
same,MIC,E. coli ATCC 25922; [3],2 µg/mL
same,Fold-potentiation of antibiotic,E. coli ATCC 25922; at 2 μg/mL GCol,256
same,Fold-potentiation of antibiotic,E. coli ATCC 25922; at 2 μg/mL GPMB,256
same,MIC,"K. pneumoniae 113254; Klebsiella pneumoniae, 113254, agent alone",8 µg/mL
same,MIC alone,K. pneumoniae 113254; agent alone,16 µg/mL
same,MIC,"K. pneumoniae 113250; Klebsiella pneumoniae, 113250, agent alone",16 µg/mL
same,MIC alone,K. pneumoniae 113250; agent alone,32 µg/mL
same,MIC,"A. baumannii 110193; Acinetobacter baumannii, 110193, agent alone",2 µg/mL
same,MIC alone,A. baumannii 110193; agent alone,1 µg/mL
same,MIC,"A. baumannii AB027; Acinetobacter baumannii, AB027, agent alone",2 µg/mL
same,MIC alone,A. baumannii AB027; agent alone,1 µg/mL
same,MIC,"A. baumannii 92247; Acinetobacter baumannii, 92247, agent alone",1 µg/mL
same,MIC alone,A. baumannii 92247; agent alone,0.5 µg/mL
same,Absolute MIC of antibiotic at 2 μg/mL GCol,A. baumannii ATCC 17978,0.0625 µg/mL
same,Absolute MIC of antibiotic at 2 μg/mL GPMB,A. baumannii ATCC 17978,0.004 µg/mL
same,FIC index antibiotic + GPMB,A. baumannii ATCC 17978,0.066
same,MIC,A. baumannii ATCC 17978; [3],2 µg/mL
same,Fold-potentiation of antibiotic,A. baumannii ATCC 17978; at 2 μg/mL GCol,32
same,Fold-potentiation of antibiotic,A. baumannii ATCC 17978; at 2 μg/mL GPMB,512
same,MIC,"E. cloacae 121187; Enterobacter cloacae, 121187, agent alone",1 µg/mL
same,MIC alone,E. cloacae 121187; agent alone,2 µg/mL
same,MIC,"A. baumannii AB031; Acinetobacter baumannii, AB031, agent alone",2 µg/mL
same,MIC alone,A. baumannii AB031; agent alone,1 µg/mL
CN[C@H](CC(C)C)C(=O)N[C@H]1C(=O)N[C@@H](CC(N)=O)C(=O)N[C@H]2C(=O)N[C@H]3C(=O)N[C@H](C(=O)N[C@H](C(=O)O)c4cc(O)cc(O)c4-c4cc3ccc4O)[C@H](O)c3ccc(c(Cl)c3)Oc3cc2cc(c3O[C@@H]2O[C@H](CO)[C@@H](O)[C@H](O)[C@H]2O[C@H]2C[C@](C)(N)[C@H](O)[C@H](C)O2)Oc2ccc(cc2Cl)[C@H]1O [Vancomycin],Absolute MIC of antibiotic at 4 μg/mL GCol,P. aeruginosa PAO1,8 µg/mL
same,Absolute MIC of antibiotic at 4 μg/mL GPMB,P. aeruginosa PAO1,2 µg/mL
same,MIC,P. aeruginosa PAO1,256 µg/mL
same,Fold-potentiation of antibiotic,P. aeruginosa PAO1; at 4 μg/mL GCol,32
same,Fold-potentiation of antibiotic,P. aeruginosa PAO1; at 4 μg/mL GPMB,128
same,Absolute MIC of antibiotic at 2 μg/mL GCol,E. coli ATCC 25922,16 µg/mL
same,Absolute MIC of antibiotic at 2 μg/mL GPMB,E. coli ATCC 25922,8 µg/mL
same,FIC index antibiotic + GCol,E. coli ATCC 25922,0.25
same,FIC index antibiotic + GPMB,E. coli ATCC 25922,0.313
same,MIC,E. coli ATCC 25922,128 µg/mL
same,Fold-potentiation of antibiotic,E. coli ATCC 25922; at 2 μg/mL GCol,8
same,Fold-potentiation of antibiotic,E. coli ATCC 25922; at 2 μg/mL GPMB,16
same,Absolute MIC of antibiotic at 2 μg/mL GCol,A. baumannii ATCC 17978,64 µg/mL
same,Absolute MIC of antibiotic at 2 μg/mL GPMB,A. baumannii ATCC 17978,16 µg/mL
same,FIC index antibiotic + GPMB,A. baumannii ATCC 17978,0.188
same,MIC,A. baumannii ATCC 17978,128 µg/mL
same,Fold-potentiation of antibiotic,A. baumannii ATCC 17978; at 2 μg/mL GCol,2
same,Fold-potentiation of antibiotic,A. baumannii ATCC 17978; at 2 μg/mL GPMB,8
NC(=O)[C@@H]1CC[C@@H]2CN1C(=O)N2OS(=O)(=O)O [avibactam],time-kill effect of dual therapy with ceftazidime,P. aeruginosa PA 107092,bacteriostatic effect
